Test results as given in patent US8476261B2, “Spirocyclic aminoquinolones as GSK-3 inhibitors” (Kyorin Pharmaceutical Co., Ltd., priority 2007, dated 2013).

Target: T1, recombinant full-length human GSK3β (Homo sapiens, UniProt P49841)
T1 construct: recombinant full-length human GSK3β (Upstate); purchased Upstate
Test: cell-free GSK3 kinase assay (KinaseGlo luciferase)
Type: biochemical
Conditions: 5 μM ATP, 1 hour at 30 degrees Celsius
Description: Proceed to KinaseGlo luciferase reaction.
Following the completion of the kinase reaction an equal volume of KinaseGlo luciferase reagent (Promega) is added and the luminescence read using a luminescence plate reader within 5-10 minutes.

T1 sequence (P49841 whole entry): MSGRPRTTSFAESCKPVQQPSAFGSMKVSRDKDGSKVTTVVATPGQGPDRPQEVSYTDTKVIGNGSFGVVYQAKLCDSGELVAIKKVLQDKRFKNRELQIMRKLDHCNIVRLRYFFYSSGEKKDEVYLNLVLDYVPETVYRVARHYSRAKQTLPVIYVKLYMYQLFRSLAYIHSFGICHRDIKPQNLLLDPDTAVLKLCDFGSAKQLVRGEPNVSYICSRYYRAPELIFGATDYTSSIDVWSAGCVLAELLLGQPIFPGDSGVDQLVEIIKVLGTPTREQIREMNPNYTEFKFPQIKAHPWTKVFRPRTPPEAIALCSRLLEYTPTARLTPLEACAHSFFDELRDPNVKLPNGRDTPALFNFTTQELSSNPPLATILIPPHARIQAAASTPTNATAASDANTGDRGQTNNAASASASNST

Row | IC50 (Table 2) [nM] | IC50 (Table 1) [nM] | SMILES
1 | < 15 | – | N#Cc1cn2c3c(c(NCCCn4cccn4)c(F)c(N)c3c1=O)OCC21CC1
2 | < 15 | – | N#Cc1cn2c3c(c(NCCCc4ccncc4)c(F)c(N)c3c1=O)OCC21CCCC1
3 | – | < 15 | Nc1c(F)c(NCCNc2ccccn2)c2c3c1c(=O)c(C(=O)O)cn3C1(CCCC1)CO2 [Compound 1]
4 | – | < 15 | Nc1c(F)c(NCCCc2ccc(F)cc2)c2c3c1c(=O)c(C(=O)O)cn3C1(CCCC1)CO2 [Compound 4]
5 | – | 16 to 60 | Nc1c(F)c(NCCOc2ccc(F)cc2)c2c3c1c(=O)c(C(=O)O)cn3C1(CCCC1)CO2 [Compound 9]
6 | – | < 15 | Nc1c(F)c(NCCSc2c[nH]c3ccccc23)c2c3c1c(=O)c(C(=O)O)cn3C1(CCCC1)CO2 [Compound 11]
7 | – | 61 to 150 | Nc1c(F)c(NCCOc2ccc(Cl)cc2Cl)c2c3c1c(=O)c(C(=O)O)cn3C1(CCCC1)CO2 [Compound 13]
8 | – | < 15 | COc1ccc(OCCNc2c(F)c(N)c3c(=O)c(C(=O)O)cn4c3c2OCC42CCCC2)cc1OC [Compound 14]
9 | – | > 150 | Nc1c(F)c(NCCOc2ccc(C3CCCCC3)cc2)c2c3c1c(=O)c(C(=O)O)cn3C1(CCCC1)CO2 [Compound 17]
10 | – | 61 to 150 | Nc1c(F)c(NCC(O)Cn2cnc3ccccc32)c2c3c1c(=O)c(C(=O)O)cn3C1(CCCC1)CO2 (stereo not shown) [Compound 22]
11 | – | 61 to 150 | Nc1c(F)c(NCCN2CCc3ccccc32)c2c3c1c(=O)c(C(=O)O)cn3C1(CCCC1)CO2 [Compound 24]
12 | – | 16 to 60 | Cc1ccc(OCCNc2c(F)c(N)c3c(=O)c(C(=O)O)cn4c3c2OCC42CCCC2)cc1 [Compound 25]
13 | – | < 15 | Nc1c(F)c(NCCCc2ccccn2)c2c3c1c(=O)c(C(=O)O)cn3C1(CCCC1)CO2 [Compound 26]
14 | – | < 15 | Nc1c(F)c(NCCCc2ccccc2Cl)c2c3c1c(=O)c(C(=O)O)cn3C1(CCCC1)CO2 [Compound 27]
15 | – | 16 to 60 | CCOc1ccc(CCCNc2c(F)c(N)c3c(=O)c(C(=O)O)cn4c3c2OCC42CCCC2)cc1OCC [Compound 29]
16 | – | < 15 | Cc1nn(C)c(C)c1CCCNc1c(F)c(N)c2c(=O)c(C#N)cn3c2c1OCC31CCCC1 [Compound 38]
17 | – | 16 to 60 | Cc1cc(C)n(CCCNc2c(F)c(N)c3c(=O)c(C(=O)O)cn4c3c2OCC42CCCC2)n1 [Compound 41]
18 | – | 61 to 150 | N=C(NO)c1cn2c3c(c(NCCCn4ccnc4)c(F)c(N)c3c1=O)OCC21CCCC1 [Compound 43]
19 | – | 16 to 60 | Nc1c(F)c(NCCNc2ccccn2)c2c3c1c(=O)c(C(=O)O)cn3C1(CCC1)CO2 [Compound 44]
20 | – | 61 to 150 | Nc1c(F)c(NCCNc2ccccn2)c2c3c1c(=O)c(C(=O)O)cn3CC1(CCC1)O2 [Compound 45]
21 | – | > 150 | Nc1c(F)c(NCCNc2ccccn2)c2c3c1c(=O)c(C(=O)O)cn3C1(CCCC1)CCO2 [Compound 48]
22 | – | < 15 | CC1COc2c(NCCNc3ccccn3)c(F)c(N)c3c(=O)c(C(=O)O)cn(c23)C12CCC2 (stereo not shown) [Compound 49]
23 | – | 61 to 150 | Nc1c(F)c(NCCNc2ccccn2)c2c3c1c(=O)c(C(=O)O)cn3CC1(CCC1)CO2 [Compound 51]
24 | – | > 150 | Nc1c(F)c(NCCNc2ccccn2)c2c3c1c(=O)c(C(=O)O)cn3CC1(CC1)CO2 [Compound 52]

Further lines, the compound ahead of its results:

Row | SMILES | IC50 (Table 2) [nM] | IC50 (Table 1) [nM]
25 | N#Cc1cn2c3c(c(NCCCc4ccccn4)c(F)c(N)c3c1=O)OCC21CC1 | < 15 | –
26 | N#Cc1cn2c3c(c(NCCCc4cccnc4)c(F)c(N)c3c1=O)OCC21CC1 | < 15 | –
27 | Cc1cc(NCCNc2c(F)c(N)c3c(=O)c(C(=O)O)cn4c3c2OCC42CCCC2)nc2ccccc12 [Compound 2] | – | 61 to 150
28 | Nc1c(F)c(NCCCn2cncn2)c2c3c1c(=O)c(C(=O)O)cn3C1(CCCC1)CO2 [Compound 3] | – | 61 to 150
29 | Nc1c(F)c(NCCCN2CCCc3ccccc32)c2c3c1c(=O)c(C(=O)O)cn3C1(CCCC1)CO2 [Compound 5] | – | 16 to 60
30 | CC(CCc1ccc(Cl)cc1)Nc1c(F)c(N)c2c(=O)c(C(=O)O)cn3c2c1OCC31CCCC1 (stereo not shown) [Compound 6] | – | 16 to 60
31 | Nc1c(F)c(NCCCNC(=O)c2ccco2)c2c3c1c(=O)c(C(=O)O)cn3C1(CCCC1)CO2 [Compound 7] | – | 16 to 60
32 | Nc1c(F)c(NCCCNC(=O)C23CC4CC(CC(C4)C2)C3)c2c3c1c(=O)c(C(=O)O)cn3C1(CCCC1)CO2 [Compound 8] | – | 16 to 60
33 | Cc1cc(OCCNc2c(F)c(N)c3c(=O)c(C(=O)O)cn4c3c2OCC42CCCC2)ccc1Cl [Compound 10] | – | 16 to 60
34 | Nc1c(F)c(NCCOc2ccc(Cl)cc2)c2c3c1c(=O)c(C(=O)O)cn3C1(CCCC1)CO2 [Compound 12] | – | 61 to 150
35 | Cc1ccc2nc(C)cc(NCCNc3c(F)c(N)c4c(=O)c(C(=O)O)cn5c4c3OCC53CCCC3)c2c1 [Compound 15] | – | < 15
36 | Cc1nnc(SCCNc2c(F)c(N)c3c(=O)c(C(=O)O)cn4c3c2OCC42CCCC2)[nH]1 [Compound 16] | – | < 15
37 | Cn1ccnc1SCCNc1c(F)c(N)c2c(=O)c(C(=O)O)cn3c2c1OCC31CCCC1 [Compound 18] | – | < 15
38 | Nc1c(F)c(NCCS(=O)(=O)N2CCCCC2)c2c3c1c(=O)c(C(=O)O)cn3C1(CCCC1)CO2 [Compound 19] | – | 61 to 150
39 | Nc1c(F)c(NCCNC2=NS(=O)(=O)c3ccccc32)c2c3c1c(=O)c(C(=O)O)cn3C1(CCCC1)CO2 [Compound 20] | – | < 15
40 | Nc1c(F)c(NCCSc2nnnn2-c2ccccc2)c2c3c1c(=O)c(C(=O)O)cn3C1(CCCC1)CO2 [Compound 21] | – | < 15

Row | SMILES | IC50 (Table 2) [nM] | IC50 (Table 1) [nM]
41 | CCN(CCCNc1c(F)c(N)c2c(=O)c(C(=O)O)cn3c2c1OCC31CCCC1)c1ccccc1 [Compound 23] | – | < 15
42 | COc1ccc(CCCNc2c(F)c(N)c3c(=O)c(C(=O)O)cn4c3c2OCC42CCCC2)cc1 [Compound 28] | – | < 15
43 | Cc1cc(NCCNc2c(F)c(N)c3c(=O)c(C(=O)O)cn4c3c2OCC42CCCC2)c2ccccc2n1 [Compound 30] | – | < 15
44 | CC(CCc1ccccc1Cl)Nc1c(F)c(N)c2c(=O)c(C(=O)O)cn3c2c1OCC31CCCC1 (stereo not shown) [Compound 31] | – | 16 to 60
45 | Cc1nn(C)c(C)c1CCCNc1c(F)c(N)c2c(=O)c(C(=O)O)cn3c2c1OCC31CCCC1 [Compound 32] | – | < 15
46 | COc1ccc(OCCNc2c(F)c(N)c3c(=O)c(C(=O)O)cn4c3c2OCC42CCCC2)cc1 [Compound 34] | – | 61 to 150
47 | Nc1c(F)c(NCCCc2ccccn2)c2c3c1c(=O)c(-c1nnn[nH]1)cn3C1(CCCC1)CO2 [Compound 35] | – | 16 to 60
48 | N#Cc1cn2c3c(c(NCCCc4ccccn4)c(F)c(N)c3c1=O)OCC21CCCC1 [Compound 36] | – | < 15
49 | N#Cc1cn2c3c(c(NCCCn4ccnc4)c(F)c(N)c3c1=O)OCC21CCCC1 [Compound 37] | – | < 15
50 | COc1ccc(C(CCNc2c(F)c(N)c3c(=O)c(C(=O)O)cn4c3c2OCC42CCCC2)c2ccc(F)cc2)cc1 (stereo not shown) [Compound 39] | – | < 15
51 | Nc1c(F)c(NCCCc2ccc(Cl)cc2)c2c3c1c(=O)c(C(=O)O)cn3C1(CCCC1)CO2 [Compound 40] | – | > 150
52 | Cc1[nH]ncc1CCCNc1c(F)c(N)c2c(=O)c(C(=O)O)cn3c2c1OCC31CCCC1 [Compound 42] | – | < 15
53 | Nc1c(F)c(NCCNc2ccccn2)c2c3c1c(=O)c(C(=O)O)cn3C1(CCO2)CC1 [Compound 46] | – | 16 to 60
54 | Nc1c(F)c(NCCNc2ccccn2)c2c3c1c(=O)c(C(=O)O)cn3C1(CCC1)CCO2 [Compound 47] | – | 16 to 60
55 | CC1CC2(CCC2)n2cc(C(=O)O)c(=O)c3c(N)c(F)c(NCCNc4ccccn4)c(c32)O1 (stereo not shown) [Compound 50] | – | > 150
